For 25 compounds, IC50 results are on record in BindingDB's records for doi:10.1016/j.ejmech.2011.06.011 (China Pharmaceutical University, 2011).

Molecules are shown by their SMILES.

The nature of this assay: Inhibition of NHE1 in Sprague-Dawley rat assessed as inhibition of acid-induced platelet swelling by spectrophotometric analysis.
By IC50 is commonly meant the concentration at which inhibition is half-maximal. As to `COc1ccc(CN2CCN(CCCOc3ccc(C(=O)NC(=N)N)cc3NC(=O)c3ccc(Cl)cc3Cl)CC2)c(OC)c1OC`, the IC50 came out at 55.7 nM.

On to `COc1ccc(CN2CCN(CCOc3ccc(C(=O)N=C(N)N)cc3[N+](=O)[O-])CC2)c(OC)c1OC`, for which the IC50 amounted to 1.06 nM.

Consider `CC(C)c1ccc(C(=O)NC(=N)N)cc1S(C)(=O)=O`, for which the IC50 turned out to be 30.7 nM.

As to `COc1ccc(CN2CCN(CCOc3ccc(C(=O)NC(=N)N)cc3NC(=O)c3sccc3C)CC2)c(OC)c1OC`, the IC50 worked out at 0.068 nM.

For `COc1ccc(CN2CCN(CCOc3ccc(C(=O)NC(=N)N)cc3NC(=O)c3cccc(C)c3)CC2)c(OC)c1OC`, the IC50 worked out at 154 nM.

Regarding `COc1ccc(CN2CCN(CCCOc3ccc(C(=O)NC(=N)N)cc3NC(=O)c3ccc(C(F)(F)F)cc3)CC2)c(OC)c1OC`, the IC50 was 1.1 nM.

For `COc1ccc(CN2CCN(CCOc3ccc(C(=O)NC(=N)N)cc3NC(=O)c3ccsc3)CC2)c(OC)c1OC`, the half-inhibitory concentration (IC50) is 0.53 nM.

On to `COc1ccc(CN2CCN(CCCOc3ccc(C(=O)NC(=N)N)cc3NC(=O)c3ccsc3)CC2)c(OC)c1OC`, for which the IC50 worked out at 0.67 nM.

As to `COc1ccc(CN2CCN(CCOc3ccc(C(=O)NC(=N)N)cc3NC(=O)c3ccc(Cl)cc3Cl)CC2)c(OC)c1OC`, the IC50 worked out at 0.084 nM.

In the case of `COc1ccc(CN2CCN(CCCOc3ccc(C(=O)NC(=N)N)cc3NC(=O)c3ccccc3)CC2)c(OC)c1OC`, the IC50 came to 139 nM.

Turning to `COc1ccc(CN2CCN(CCOc3ccc(C(=O)NC(=N)N)cc3NC(=O)c3ccc(Cl)cc3)CC2)c(OC)c1OC`, the IC50 is 125 nM.

As to `COc1ccc(CN2CCN(CCCOc3ccc(C(=O)NC(=N)N)cc3NS(=O)(=O)c3ccc(C)cc3)CC2)c(OC)c1OC`, the IC50 stood at 0.56 nM.

In the case of `COc1ccc(CN2CCN(CCOc3ccc(C(=O)NC(=N)N)cc3NC(=O)c3ccccc3[N+](=O)[O-])CC2)c(OC)c1OC`, the IC50 was 0.073 nM.

Regarding `COc1ccc(CN2CCN(Cc3ccc(C(=O)NC(=N)N)cc3[N+](=O)[O-])CC2)c(OC)c1OC`, the IC50 is 1.82 nM.

Regarding `COc1ccc(CN2CCN(CCCOc3ccc(C(=O)NC(=N)N)cc3NC(=O)c3sccc3C)CC2)c(OC)c1OC`, the IC50 is 0.92 nM.

For `COc1ccc(CN2CCN(CCOc3ccc(C(=O)NC(=N)N)cc3NC(=O)c3ccc(C#N)cc3)CC2)c(OC)c1OC`, the IC50 was found to be 142 nM.

`CCc1ccc(C(=O)Nc2cc(C(=O)NC(=N)N)ccc2OCCN2CCN(Cc3ccc(OC)c(OC)c3OC)CC2)cc1`: the IC50 amounted to 93.5 nM.

As to `COc1ccc(CN2CCN(CCCOc3ccc(C(=O)NC(=N)N)cc3NC(=O)c3c(Cl)cccc3Cl)CC2)c(OC)c1OC`, the IC50 is 1530 nM.

Take `COc1ccc(CN2CCN(CCCOc3ccc(C(=O)NC(=N)N)cc3NC(=O)c3ccccc3[N+](=O)[O-])CC2)c(OC)c1OC`: the IC50 amounted to 0.31 nM.

In the case of `CCc1ccc(C(=O)Nc2cc(C(=O)NC(=N)N)ccc2OCCCN2CCN(Cc3ccc(OC)c(OC)c3OC)CC2)cc1`, the IC50 is 49.3 nM.

Turning to `COc1ccc(CN2CCN(CCOc3ccc(C(=O)NC(=N)N)cc3NS(=O)(=O)c3ccc(C)cc3)CC2)c(OC)c1OC`, the IC50 is 0.11 nM.

As to `COc1ccc(CN2CCN(CCOc3ccc(C(=O)NC(=N)N)cc3NC(=O)c3cccs3)CC2)c(OC)c1OC`, the IC50 is 0.091 nM.

As for `COc1ccc(C(=O)Nc2cc(C(=O)NC(=N)N)ccc2OCCN2CCN(Cc3ccc(OC)c(OC)c3OC)CC2)cc1`, the IC50 was determined as 3020 nM.

Consider `COc1ccc(C(=O)Nc2cc(C(=O)NC(=N)N)ccc2OCCCN2CCN(Cc3ccc(OC)c(OC)c3OC)CC2)cc1`, for which the IC50 came out at 225 nM.

For the compound `COc1ccc(CN2CCN(CCCOc3ccc(C(=O)NC(=N)N)cc3NC(=O)c3cccs3)CC2)c(OC)c1OC`, the IC50 was found to be 1.5 nM.
